Test results taken from US4847302A, “Use of certain compounds in livestock food as growth promotants for better feed utilization and improved carcass composition” (Merck & Co., Inc., priority 1988, dated 1989).
Like-named read-outs stand apart in the source and are kept apart here.

Experiments:
[1] = Growth promoting activity / feed utilization in livestock (general statements); format: in vivo
[2] = test system: Isolated Chicken Hepatocytes; experiment: Inhibition of lipogenesis (14C acetate incorporation) in isolated chicken hepatocytes; format: cell-based; conditions: for inhibition at 0.01 µM / inhibition at 0.05 µM / inhibition at 0.25 µM: Gallus gallus, Hepatocyte, 2 h, read-out: percent change compared to control, 14C acetate incorporation in fatty acids; for percent change compared to control, 14C acetate incorporation in fatty acids: 120 min
Description: Determination of anti-lipogenic activity in hepatocytes
Hepatocytes were isolated from chicken liver using the procedure for adipocytes and incubated for 2 hours at 37° C. in the presence of ^14 C acetate and test compounds. […] Isoproterenol, at the same concentrations, was used as a positive control. After incubation, 8 ml Doles reagent (isopropanol:hexane:H2 SO4, 40:10:1) was added and incubation vials were shaken at room temperature for 30 minutes. Vial contents were poured into 50 ml screw-cap tubes. Vials were then rinsed with 6 ml hexane which was poured into the appropriate 50 ml tube. Tubes were shaken by hand, 10 ml H2 O was added, and tubes were shaken again. After phase separation, 2 ml of the upper (hexane) phase was removed to scintillation vials. Hexane was evaporated by a gentle air flow and the remaining lipids were resuspended in 10 ml Scinti Verse II. ^14 C was counted in a Packard liquid scintillation counter. Data are reported as CPM of ^14 C acetate incorporated into total lipids.

[3] = test system: Isolated Ovine Adipocytes; experiment: Stimulation of lipolysis (glycerol production) in isolated ovine adipocytes; format: cell-based, sheep; conditions: for activation at 0.01 µM / activation at 0.05 µM / activation at 0.25 µM: Ovis aries, Adipocyte, 2 h, read-out: percent increase compared to control, glycerol production
Description: (§1) Fat was collected from freshly killed animals as follows: epididymal and perirenal fat from 150 to 200 g male rates; perirenal fat from 20 to 25 kg whether lambs, and perirenal and omental fat from 35 to 50 kg gilts. Immediately after collection, fat was placed in a siliconized beaker (all glassware was siliconized) containing Krebs-Ringer bicarbonate solution (KRB; pH 7.4) at 37° C. Fat was transferred to a clean beaker and finely chopped with scissors. Chopped fat was then used as such (whole adipose preparation) or treated with collagenase (isolated adipocytes).
(§2) Chopped fat was placed in a shaker containing 70 ml cell dispersion medium (CDM; 5 mM glucose, 0.1% collagenase, 4% bovine serum albumin (BSA), in KRB) and incubated at 37° C. for 1 hour with gentle shaking. Fat was then filtered to remove clumps and washed 4 times with washing medium (WM; 2.5 mM glucose, 1% BSA, in KRB) and 1 time with final suspension medium (FSM; 2.5 mM glucose, 2% essentially fatty acid free BSA, in KRB). Isolated adipocytes were then resuspended in the required amount of FSM (1 ml/flask, 3 flasks/treatment).
(§3) Whole adipose tissue from the rat (0.3 ml) or isolated adipocytes from sheep or swine (1 ml) were placed in plastic scintillation vials containing FSM (1.7 or 1 ml, respectively) and test compounds, and incubated at 37° C. for 2 hours. […] Isoproterenol, at the same concentrations, was used as a positive control. After incubation, media was removed and assayed for glycerol by a fluorometric modification of the method of Wieland (1974. Glycerol UV-method. pp. 1404. In: Bergmeyer (Ed.) Methods of Enzymatic Analysis. Verlag Chemie Weinham, Academic Press, New York).

Rat Adipose Tissue = experiment: Stimulation of lipolysis (glycerol production) in chopped rat adipose tissue; format: cell-based; conditions: for activation at 0.01 µM / activation at 0.05 µM / activation at 0.25 µM: Rattus norvegicus, 2 h, read-out: percent increase compared to control, glycerol production
Description: as §1
as §3, with “York). […]” for “York).”

[4] = test system: Isolated Swine Adipocytes; experiment: Stimulation of lipolysis (glycerol production) in isolated swine adipocytes; format: cell-based; conditions: for activation at 0.01 µM / activation at 0.05 µM / activation at 0.25 µM: Sus scrofa, Adipocyte, 2 h, read-out: percent increase compared to control, glycerol production
Description: as §1, §2, §3

[5] = In vivo testing in rats: growth, feed conversion and carcass composition; parameters: species or system rat (male Charles River CD); conditions: in diet, dose equivalent to 20 ppm clenbuterol (clenbuterol: 10)
From the text: Eighty intact, male Charles River CD rats, 75-90 g, were housed and maintained on rat chow and water ad libitum. After four days acclimation ten rats per group were randomized by weight to treatment and pen. Compounds to be tested were premixed and added to ground rat chow using doses equivalent to 20 ppm of clenbuterol on a molecular weight basis. It had previously been determined 10 ppm of clenbuterol was the minimum dose needed to give maximum improvements in gain and feed conversion. Therefore, the results of any compound tested should cause responses similar to clenbuterol if the compound has half or more the activity of clenbuterol.

## CC(C)(C)NCC(O)c1ccc(O)c(O)c1 (centres unmarked) [Compound X, Colterol]
[1]; administered orally
  growth promoting activity, oral: very little activity
[1]; administered parenterally
  growth promoting activity, parenteral: substantially active

## COc1ccc(CNc2cc(C(O)CNC(C)(C)C)ccc2O)cc1 (centres unmarked) [III]
[2]; Test 1, 0.01 μM
  inhibition at 0.01 µM: 9.5%
[2]; Test 1, 0.05 μM
  inhibition at 0.05 µM: 35.5%
[2]; Test 1, 0.25 μM
  inhibition at 0.25 µM: 54.4%
[3]; Test 1, 0.01 μM
  activation at 0.01 µM: 465%
[3]; Test 1, 0.05 μM
  activation at 0.05 µM: 845%
Rat Adipose Tissue; Test 1, 0.01 μM
  activation at 0.01 µM: 194%
Rat Adipose Tissue; Test 1, 0.05 μM
  activation at 0.05 µM: 203%
Rat Adipose Tissue; Test 1, 0.25 μM
  activation at 0.25 µM: 334%
[4]; Test 1, 0.01 μM
  activation at 0.01 µM: 20%
[4]; Test 1, 0.05 μM
  activation at 0.05 µM: 33%
[4]; Test 1, 0.25 μM
  activation at 0.25 µM: 53%
[5]; Test 1, control 7.3
  Gain: 8.0 g/day
[5]; Test 1, control 18.6
  Feed Intake: 19.4 g/day
[5]; Test 1, control 191.8
  Weight: 201.7 g
[5]; Test 1
  Carcass Composition % of Change over Control, Fat: -7.0%
  Carcass Composition % of Change over Control, Protein: 6.1%

## CC(C)(C)NCC(O)c1cc(Br)no1 (centres unmarked) [II]
[2]; Test 1, 0.01 μM
  inhibition at 0.01 µM: 0%
[2]; Test 1, 0.05 μM
  inhibition at 0.05 µM: 0%
[2]; Test 1, 0.25 μM
  inhibition at 0.25 µM: 7.9%
[3]; Test 1, 0.25 μM
  activation at 0.25 µM: 325%
[3]; Test 1, 0.05 μM
  percent increase compared to control, glycerol production: inactive
Rat Adipose Tissue; Test 1, 0.01 μM
  activation at 0.01 µM: 51%
Rat Adipose Tissue; Test 1, 0.05 μM
  activation at 0.05 µM: 15%
Rat Adipose Tissue; Test 1, 0.25 μM
  activation at 0.25 µM: 35%
[4]; Test 1, 0.01 μM
  activation at 0.01 µM: 27%
[4]; Test 1, 0.05 μM
  activation at 0.05 µM: -7%
[4]; Test 1, 0.25 μM
  activation at 0.25 µM: -40%
[5]; Test 2, control 7.5
  Gain: 8.4 g/day
[5]; Test 2, control 19.3
  Feed Intake: 21.1 g/day
[5]; Test 2, control 202.3
  Weight: 215.9 g
[5]; Test 2
  Carcass Composition % of Change over Control, Fat: -9.3%
  Carcass Composition % of Change over Control, Protein: 3.8%

## CC(C)NCC(O)c1ccc(O)c(O)c1 (centres unmarked) [Isoproterenol]
[2]; Test 1, 0.01 μM
  inhibition at 0.01 µM: 29.1%
[2]; Test 1, 0.05 μM
  inhibition at 0.05 µM: 48.6%
[2]; Test 1, 0.25 μM
  inhibition at 0.25 µM: 70.3%
[2]; Test 2, 0.01 μM
  inhibition at 0.01 µM: 21%
[2]; Test 2, 0.05 μM
  inhibition at 0.05 µM: 15%
[2]; Test 2, 0.25 μM
  inhibition at 0.25 µM: 49%
[3]; Test 1, 0.01 μM
  activation at 0.01 µM: 670%
[3]; Test 2, 0.01 μM
  activation at 0.01 µM: 600%
Rat Adipose Tissue; Test 1, 0.01 μM
  activation at 0.01 µM: 45%
Rat Adipose Tissue; Test 1, 0.05 μM
  activation at 0.05 µM: 173%
Rat Adipose Tissue; Test 1, 0.25 μM
  activation at 0.25 µM: 290%
Rat Adipose Tissue; Test 2, 0.01 μM
  activation at 0.01 µM: 49%
Rat Adipose Tissue; Test 2, 0.05 μM
  activation at 0.05 µM: 154%
Rat Adipose Tissue; Test 2, 0.25 μM
  activation at 0.25 µM: 216%
[4]; Test 1, 0.01 μM
  activation at 0.01 µM: 40%
[4]; Test 1, 0.05 μM
  activation at 0.05 µM: 140%
[4]; Test 1, 0.25 μM
  activation at 0.25 µM: 660%
[4]; Test 2, 0.01 μM
  activation at 0.01 µM: 175%
[4]; Test 2, 0.05 μM
  activation at 0.05 µM: 196%
[4]; Test 2, 0.25 μM
  activation at 0.25 µM: 820%

## Cn1c(=O)c2c(ncn2CCCNCC(O)c2cc(O)cc(O)c2)n(C)c1=O (centres unmarked) [VI, Reproterol]
[2]; Test 1, 0.01 μM
  inhibition at 0.01 µM: 0%
[2]; Test 1, 0.05 μM
  inhibition at 0.05 µM: 0%
[2]; Test 1, 0.25 μM
  inhibition at 0.25 µM: 8.6%
[2]; Test 2, 0.01 μM
  inhibition at 0.01 µM: -3%
[2]; Test 2, 0.05 μM
  inhibition at 0.05 µM: 12%
[2]; Test 2, 0.25 μM
  inhibition at 0.25 µM: 25%
[3]; Test 1, 0.05 μM
  activation at 0.05 µM: 130%
[3]; Test 1, 0.25 μM
  activation at 0.25 µM: 465%
[3]; Test 2, 0.01 μM
  activation at 0.01 µM: -14%
[3]; Test 2, 0.05 μM
  activation at 0.05 µM: 129%
[3]; Test 2, 0.25 μM
  activation at 0.25 µM: 700%
Rat Adipose Tissue; Test 1, 0.01 μM
  activation at 0.01 µM: 63%
Rat Adipose Tissue; Test 1, 0.05 μM
  activation at 0.05 µM: 86%
Rat Adipose Tissue; Test 1, 0.25 μM
  activation at 0.25 µM: 86%
Rat Adipose Tissue; Test 2, 0.01 μM
  activation at 0.01 µM: 13%
Rat Adipose Tissue; Test 2, 0.05 μM
  activation at 0.05 µM: 16%
Rat Adipose Tissue; Test 2, 0.25 μM
  activation at 0.25 µM: 13%
[4]; Test 1, 0.01 μM
  activation at 0.01 µM: 20%
[4]; Test 1, 0.05 μM
  activation at 0.05 µM: -7%
[4]; Test 1, 0.25 μM
  activation at 0.25 µM: 0%
[4]; Test 2, 0.01 μM
  activation at 0.01 µM: 8%
[4]; Test 2, 0.05 μM
  activation at 0.05 µM: 21%
[4]; Test 2, 0.25 μM
  activation at 0.25 µM: 3%
[5]; Test 2, control 7.5
  Gain: 8.3 g/day
[5]; Test 2, control 19.3
  Feed Intake: 21.2 g/day
[5]; Test 2, control 202.3
  Weight: 213.4 g
[5]; Test 2
  Carcass Composition % of Change over Control, Fat: 2.5%
  Carcass Composition % of Change over Control, Protein: 0.5%

## CC(C)N[C@H]1CCc2c(ccc(O)c2CO)[C@@H]1O.Cl [VIII]
[2]; Test 2, 0.01 μM
  percent change compared to control, 14C acetate incorporation in fatty acids: 26%
[2]; Test 2, 0.05 μM
  percent change compared to control, 14C acetate incorporation in fatty acids: -9%
[2]; Test 2, 0.25 μM
  percent change compared to control, 14C acetate incorporation in fatty acids: -34%
[3]; Test 1, 0.01 μM
  percent increase compared to control, glycerol production: 135%
[3]; Test 1, 0.05 μM
  percent increase compared to control, glycerol production: 445%
[3]; Test 1, 0.25 μM
  percent increase compared to control, glycerol production: 565%
[3]; Test 2, 0.01 μM
  percent increase compared to control, glycerol production: 71%
[3]; Test 2, 0.05 μM
  percent increase compared to control, glycerol production: 1143%
[3]; Test 2, 0.25 μM
  percent increase compared to control, glycerol production: 1800%
Rat Adipose Tissue; Test 1, 0.01 μM
  percent increase compared to control, glycerol production: 19%
Rat Adipose Tissue; Test 1, 0.05 μM
  percent increase compared to control, glycerol production: 26%
Rat Adipose Tissue; Test 1, 0.25 μM
  percent increase compared to control, glycerol production: 21%
Rat Adipose Tissue; Test 2, 0.01 μM
  percent increase compared to control, glycerol production: -7%
Rat Adipose Tissue; Test 2, 0.05 μM
  percent increase compared to control, glycerol production: 4%
Rat Adipose Tissue; Test 2, 0.25 μM
  percent increase compared to control, glycerol production: 7%
[4]; Test 1, 0.01 μM
  percent increase compared to control, glycerol production: 13%
[4]; Test 1, 0.05 μM
  percent increase compared to control, glycerol production: 147%
[4]; Test 1, 0.25 μM
  percent increase compared to control, glycerol production: 180%
[4]; Test 2, 0.01 μM
  percent increase compared to control, glycerol production: 61%
[4]; Test 2, 0.05 μM
  percent increase compared to control, glycerol production: 59%
[4]; Test 2, 0.25 μM
  percent increase compared to control, glycerol production: 460%
[5]; Test 1, control 2.55
  Feed Conversion: 2.41
[5]; Test 1, control 7.3
  Gain: 8.1 g/day
[5]; Test 1, control 18.6
  Feed Intake: 19.5 g/day
[5]; Test 1, control 191.8
  Weight: 202.6 g
[5]; Test 1
  Carcass Composition % of Change over Control, Fat: -6.1%
  Carcass Composition % of Change over Control, Protein: 6.4%

## C[C@H](CCc1ccccc1)NC[C@H](O)c1ccc(N)nc1 [α-R,1R compound]
[1]; in vivo
  activity compared with the other optical isomers of compound IV: significantly more active than the most active of the other isomers
